The source of these data is US20260285857A1, “BICYCLIC AND HETEROCYCLIC AMIDE COMPOUNDS” (priority 2024, published 2026).

In the assay the test system is immunoglobulin light chain protein WIL-FL T46L. The experiment in a line: Differential scanning fluorimetry (thermal shift) assay. Format: binding.
[1] abbreviates: Table B, temperature shift [Tm]compound-[Tm]vehicle, recombinant WIL-FL T46L.

The structures appear in SMILES notation. Like-named read-outs stand apart in the source and are kept apart here.

With `Cc1cc(N2CC[C@](C)(c3ccccc3)C2)cn2nc(C34CC(CO)(CO3)C4C(=O)O)nc12` (some centres unmarked) [Compound 575, 4-(hydroxymethyl)-1-(8-methyl-6-((r)-3-methyl-3-phenylpyrrolidin-1-yl)-[1,2,4]triazolo[1,5-a]pyridin-2-yl)-2-oxabicyclo[2.1.1]hexane-5-carboxylic acid], the DSF entry under setting [1] is listed as “***** (>2.5° C.=*****)”.

`Cc1cc(N2CC[C@](C)(c3ccccc3)C2)cn2nc(C34CC(CO)(CO3)C4N3CC4(CC4)NC3=O)nc12` (stereo partly drawn) [Compound 576, 6-(4-(hydroxymethyl)-1-(8-methyl-6-((R)-3-methyl-3-phenylpyrrolidin-1-yl)-[1,2,4]triazolo[1,5-a]pyridin-2-yl)-2-oxabicyclo[2.1.1]hexan-5-yl)-4,6-diazaspiro[2.4]heptan-5-one]: the DSF result is “***** (key: 0-0.5° C.=*; >0.5-1 °C =**; >1-1.5° C.=***; >1.5-2.5° C.=****; >2.5° C.=*****)”.

Regarding `Cc1cc(N2CC[C@](C)(c3ccccc3)C2)cn2nc(C34CC(CO)(CO3)C4N3CC4(COC4)NC3=O)nc12` (some centres unmarked) [Compound 577], the DSF result under setting [1] was “***** (>2.5° C.=*****)”.

Turning to `Cc1n[nH]c(C2C3(CO)COC2(c2nc4c(C)cc(N5CC6(CCC6c6ccccc6)C5)cn4n2)C3)n1` (centres unmarked) [Compound 578, [1-[8-methyl-6-(7-phenyl-2-azaspiro[3.3]heptan-2-yl)-[1,2,4]triazolo[1,5-a]pyridin-2-yl]-5-(3-methyl-1H1,2,4-triazol-5-yl)-2-oxabicyclo[2.1.1]hexan-4-yl]methanol], the DSF entry under setting [1] is given as “***** (>2.5° C.=*****)”.

In the case of `CCC1(c2ccccc2)CN(c2cc(C)c3nc(C45CC(CO)(CO4)C5c4nc(C)n[nH]4)nn3c2)C1` (centres unmarked) [Compound 579], the DSF result under setting [1] was “**** (>1.5-2.5° C.=****)”.

Take `Cc1nc([C@H]2[C@@]3(CO)CO[C@]2(c2nc4c(C)cc(N5CC[C@](C)(c6ccccc6)C5)cn4n2)C3)n[nH]1` [Compound 580, ((1R,4S,5R)-5-(5-methyl-1H-1,2,4-triazol-3-yl)-1-(8-methyl-6-((R)-3-methyl-3-phenylpyrrolidin-1-yl)-[1,2,4]triazolo[1,5-a]pyridin-2-yl)-2-oxabicyclo[2.1.1]hexan-4-yl)methanol]: the DSF result under setting [1] was “***** (>2.5° C.=*****)”.

Regarding `Cc1nc([C@H]2[C@]3(CO)CO[C@@]2(c2nc4c(C)cc(N5CC[C@](C)(c6ccccc6)C5)cn4n2)C3)n[nH]1` [Compound 581, ((1S,4R,5R)-5-(5-methyl-1H-1,2,4-triazol-3-yl)-1-(8-methyl-6-((R)-3-methyl-3-phenylpyrrolidin-1-yl)-[1,2,4]triazolo[1,5-a]pyridin-2-yl)-2-oxabicyclo[2.1.1]hexan-4-yl)methanol], the DSF entry under setting [1] is reported as “***** (>2.5° C.=*****)”.

Turning to `Cc1cc(N2CC[C@](C)(c3ccccc3)C2)cn2nc(C34CC(CN)(CO3)C4CO)nc12` (stereo partly drawn) [Compound 582, (4-(aminomethyl)-1-(8-methyl-6-((R)-3-methyl-3-phenylpyrrolidin-1-yl)-[1,2,4]triazolo[1,5-a]pyridin-2-yl)-2-oxabicyclo[2.1.1]hexan-5-yl)methanol], under setting [1], the DSF result is listed as “***** (>2.5° C.=*****)”.

Take `CCS(=O)(=O)NCC12COC(c3nc4c(C)cc(N5CC[C@](C)(c6ccccc6)C5)cn4n3)(C1)C2CO` (stereo partly drawn) [Compound 583, N-((5-(hydroxymethyl)-1-(8-methyl-6-((R)-3-methyl-3-phenylpyrrolidin-1-yl)-[1,2,4]triazolo[1,5-a]pyridin-2-yl)-2-oxabicyclo[2.1.1]hexan-4-yl)methyl)ethanesulfonamide]: under setting [1], the DSF result is reported as “***** (>2.5° C.=*****)”.

`Cc1nc(C2C3(CNS(=O)(=O)CC(C)(C)C(=O)O)COC2(c2nc4c(C)cc(N5CC[C@](C)(c6ccccc6)C5)cn4n2)C3)n[nH]1` (stereo partly drawn) [Compound 584, 2,2-dimethyl-3-(N-((5-(5-methyl-11H-1,2,4-triazol-3-yl)-1-(8-methyl-6-((R)-3-methyl-3-phenylpyrrolidin-1-yl)-[1,2,4]triazolo[1,5-a]pyridin-2-yl)-2-oxabicyclo[2.1.1]hexan-4-yl)methyl)sulfamoyl)propanoic acid]: the DSF entry under setting [1] is “***** (>2.5° C.=*****)”.

For the compound `COC(C)(CS(=O)(=O)NCC12COC(c3nc4c(C)cc(N5CC[C@](C)(c6ccccc6)C5)cn4n3)(C1)C2c1n[nH]c(C)n1)C(=O)O` (some centres unmarked) [Compound 585], under setting [1], the DSF entry is given as “***** (>2.5° C.=*****)”.

Turning to `Cc1nc(C2C3(CNC(=O)CC(C)(C)C(=O)O)COC2(c2nc4c(C)cc(N5CC[C@](C)(c6ccccc6)C5)cn4n2)C3)n[nH]1` (some centres unmarked) [Compound 586], under setting [1], the DSF result is reported as “***** (>2.5° C.=*****)”.

Consider `CCS(=O)(=O)NCC12COC(c3nc4c(C)cc(N5CC[C@](C)(c6ccccc6)C5)cn4n3)(C1)C2c1n[nH]c(C)n1` (some centres unmarked) [Compound 587], for which the DSF entry under setting [1] is on record as “***** (>2.5° C.=*****)”.

With `CCC(=O)NCC12COC(c3nc4c(C)cc(N5CC[C@](C)(c6ccccc6)C5)cn4n3)(C1)C2c1n[nH]c(C)n1` (some centres unmarked) [Compound 588], the DSF result under setting [1] is “***** (>2.5° C.=*****)”.

For the compound `COC(C)(CC(=O)NCC12COC(c3nc4c(C)cc(N5CC[C@](C)(c6ccccc6)C5)cn4n3)(C1)C2c1nc(C)n[nH]1)C(=O)O` (some centres unmarked) [Compound 589], the DSF entry under setting [1] is “***** (>2.5° C.=*****)”.

Regarding `Cc1n[nH]c(C2C3(CNC(=O)C4CC[C@H](C(=O)O)O4)COC2(c2nc4c(C)cc(N5CC[C@](C)(c6ccccc6)C5)cn4n2)C3)n1` (some centres unmarked) [Compound 590], the DSF result under setting [1] is “***** (>2.5° C.=*****)”.

On to `Cc1n[nH]c(C23CC(NC(=O)c4nc5c(C)cc(N6CC[C@](C)(c7ccccc7)C6)cn5n4)(CO2)C3)n1` [Compound 591, (R)-8-methyl-N-(1-(3-methyl-1H-1,2,4-triazol-5-yl)-2-oxabicyclo[2.1.1]hexan-4-yl)-6-(3-methyl-3-phenylpyrrolidin-1-yl)-[1,2,4]triazolo[1,5-a]pyridine-2-carboxamide], for which the DSF result under setting [1] is on record as “***** (>2.5° C.=*****)”.

With `Cc1cc(N2CC[C@](C)(c3ccccc3)C2)cn2nc(C(=O)N3CC4CC(C(=O)O)CC4C3)nc12` (some centres unmarked) [Compound 592], the DSF entry under setting [1] is reported as “***** (>2.5° C.=*****)”.

As to `Cc1cc(N2CC[C@@](C)(n3ccc(C(F)(F)F)n3)C2)cn2nc(C(=O)NC3COC4(COC4)C3)nc12` (some centres unmarked) [Compound 593], under setting [1], the DSF entry is listed as “***** (>2.5° C.=*****)”.

Take `Cc1cc(N2CC[C@](C)(c3ccccc3)C2)cn2nc(C(=O)N3CCC4(CCC(C(=O)O)O4)C3)nc12` (some centres unmarked) [Compound 594]: under setting [1], the DSF result is listed as “***** (>2.5° C.=*****)”.

For the compound `Cc1cc(N2CC[C@](C)(c3ccccc3)C2)cn2nc(C(=O)N3C[C@@H]4[C@@H](C(=O)O)CO[C@@H]4C3)nc12` [Compound 595], the DSF result under setting [1] is “***** (>2.5° C.=*****)”.

For `Cc1cc(N2CC[C@](C)(c3ccccc3)C2)cn2nc(C(=O)NC3CC4(C3)CN(C(=O)C3CCC(C(=O)O)O3)C4)nc12` (stereo partly drawn) [Compound 596, 5-[6-[[8-methyl-6-[(3R)-3-methyl-3-phenyl-pyrrolidin-1-yl]-[1,2,4]triazolo[1,5-a]pyridine-2-carbonyl]amino]-2-azaspiro[3.3]heptane-2-carbonyl]tetrahydrofuran-2-carboxylic acid], the DSF result under setting [1] is recorded as “***** (>2.5° C.=*****)”.

Consider `CNC(=O)C12CC(NC(=O)c3nc4c(C)cc(N5CC[C@](C)(c6ccccc6)C5)cn4n3)(CO1)C2` [Compound 597], for which the DSF entry under setting [1] is reported as “***** (>2.5° C.=*****)”.

Turning to `Cc1cc(N2CC[C@](C)(c3ccccc3)C2)cn2nc(C(=O)N3CCC4(COCC(C(=O)O)O4)C3)nc12` (some centres unmarked) [Compound 598], under setting [1], the DSF entry was “***** (>2.5° C.=*****)”.

For the compound `Cc1cc(N2CC[C@](C)(c3ccccc3)C2)cn2nc(C(=O)NC3CC4(C3)CC(N3CCC(C(=O)O)CC3)C4)nc12` (some centres unmarked) [Compound 599], under setting [1], the DSF entry is listed as “***** (>2.5° C.=*****)”.

Take `Cc1cc(N2CC[C@](C)(c3ccccc3)C2)cn2nc(C(=O)NC3CC4(C3)CC(N3CC(C(=O)O)C3)C4)nc12` (some centres unmarked) [Compound 600]: the DSF entry under setting [1] was “***** (>2.5° C.=*****)”.

In the case of `Cc1cc(N2CC[C@](C)(c3ccccc3)C2)cn2nc(C(=O)NC3CC4(C3)CN(C(=O)CC(C)(C)C(=O)O)C4)nc12` [Compound 601], the DSF result under setting [1] is “***** (>2.5° C.=*****)”.

As for `Cc1cc(N2CC[C@](C)(c3ccccc3)C2)cn2nc(C(=O)NC34CCC(CO)(CC3)OC4)nc12` [Compound 602], the DSF result under setting [1] was “***** (>2.5° C.=*****)”.

`Cc1cc(N2CC[C@](C)(c3ccccc3)C2)cn2nc(C(=O)N3CC(C(=O)O)C4(COC4)C3)nc12` (some centres unmarked) [Compound 603]: under setting [1], the DSF result is given as “***** (>2.5° C.=*****)”.

`Cc1cc(N2CC[C@](C)(c3ccccc3)C2)cn2nc(C(=O)N3CC4COCC4(C(=O)O)C3)nc12` (some centres unmarked) [Compound 604]: under setting [1], the DSF entry is listed as “***** (>2.5° C.=*****)”.

For the compound `Cc1cc(N2CC[C@](C)(c3ccccc3)C2)cn2nc(C(=O)N3CCC4(CCCC(C(=O)O)C4)C3)nc12` (some centres unmarked) [Compound 606], the DSF result under setting [1] is “***** (>2.5° C.=*****)”.

For the compound `Cc1cc(N2CC[C@](C)(c3ccccc3)C2)cn2nc(C(=O)NC3CCN(c4cccc(S(C)(=N)=O)n4)CC3)nc12` (stereo partly drawn) [Compound 608, 8-methyl-6-[(3R)-3-methyl-3-phenyl-pyrrolidin-1-yl]-N-[1-[6-(methylsulfonimidoyl)-2-pyridyl]-4-piperidyl]-[1,2,4]triazolo[1,5-a]pyridine-2-carboxamide], the DSF result under setting [1] is recorded as “***** (>2.5° C.=*****)”.

Take `Cc1cc(N2CC[C@](C)(c3ccccc3)C2)cn2nc(C(=O)N3CCC4(CCN(c5ccc(C(N)=O)c(C(=O)O)n5)C4)C3)nc12` (some centres unmarked) [Compound 610]: the DSF result under setting [1] was “***** (>2.5° C.=*****)”.

For the compound `Cc1cc(N2CC[C@](C)(c3ccccc3)C2)cn2nc(C(=O)N3CCC4C3CCN4c3cccc(C(=O)O)n3)nc12` (some centres unmarked) [Compound 611], under setting [1], the DSF entry is reported as “***** (>2.5° C.=*****)”.

As to `COC1(CNC(=O)c2nc3c(C)cc(N4CC[C@](C)(c5ccccc5)C4)cn3n2)CN(c2cccc(C(=O)O)n2)C1` [Compound 612], the DSF result under setting [1] was “***** (>2.5° C.=*****)”.

For `Cc1cc(N2CC[C@](C)(c3ccccc3)C2)cn2nc(C(=O)NCC3(O)CN(c4cccc(C(=O)O)n4)C3)nc12` [Compound 613], the DSF entry under setting [1] is listed as “***** (>2.5° C.=*****)”.

Turning to `Cc1cc(N2CC[C@](C)(c3ccccc3)C2)cn2nc(C(=O)N3CCC34CN(c3cccc(C(=O)O)n3)C4)nc12` [Compound 615], the DSF entry under setting [1] is listed as “**** (>1.5-2.5° C.=****)”.

Regarding `Cc1cc(N2CC[C@](C)(c3ccccc3)C2)cn2nc(C(=O)N3CCC(Nc4cccc(C(=O)O)n4)C3)nc12` (some centres unmarked) [Compound 616], the DSF result under setting [1] is recorded as “***** (>2.5° C.=*****)”.
